Measurements: US12180192B2, “Modulators of THR-β and methods of use thereof” (ALIGOS THERAPEUTICS, INC., priority 2019, dated 2024)

How the values were obtained:
[1] = biological target: T1, human thyroid receptor beta ligand-binding domain (LBD) (Homo sapiens, UniProt P10828); test: TR-FRET thyroid receptor beta coactivator assay (THR biochemical assay, Assay 1); details: for EC50: THR-beta, TR-FRET coactivator assay, read-out: Activity category Assay 1 (EC50, THR-beta agonist); for Emax: Table 5, Assay 1, THRβ, read-out: Activity category Assay 1 THRβ (Emax)
T1 construct: purchased Invitrogen
T1 sequence (P10828 217-461 limits assumed): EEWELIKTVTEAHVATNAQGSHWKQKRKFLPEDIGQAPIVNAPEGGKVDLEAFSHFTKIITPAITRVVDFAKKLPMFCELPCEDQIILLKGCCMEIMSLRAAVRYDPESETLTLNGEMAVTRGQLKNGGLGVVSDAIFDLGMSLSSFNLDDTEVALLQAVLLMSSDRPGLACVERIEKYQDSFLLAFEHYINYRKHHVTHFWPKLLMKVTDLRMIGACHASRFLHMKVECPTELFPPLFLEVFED
In short: (§1)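 GST-tagged human TRβ or TRα LBD, 1 nM final (stated for β), with fluorescein-SRC2-2 coactivator peptide (200 nM) and Tb-anti-GST antibody (2 nM). Agonists serially diluted, 1% DMSO final. 1 h incubation at rt in the dark; TR-FRET read as rise in fluorescein and drop in terbium emission.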

[2] = biological target: T2, human thyroid receptor alpha ligand-binding domain (LBD) (Homo sapiens, UniProt P10827); test: TR-FRET thyroid receptor alpha coactivator assay (THR biochemical assay, Assay 1); details: for EC50: Table 4, THR-alpha, read-out: Activity category Assay 1 (EC50, THR-alpha agonist activity); for Emax: Table 5, THRα, read-out: Activity category Assay 1 THRα (Emax)
T2 construct: purchased Invitrogen
In short: as §1

[3] = biological target: T3, THR beta (Homo sapiens, UniProt P10828); test: HEK293T THR beta/RXR luciferase reporter assay (Assay 2); format: cell-based; details: for Emax: HEK-293T, Table 5, Assay 2, THRβ, read-out: Activity category Assay 2 THRβ (Emax); for EC50: THR-beta, HEK293T reporter assay, read-out: Activity category Assay 2 (EC50, THR-beta agonist)
T3 construct: expressed in transfected cells; host or cells: HEK293T (ATCC CRL-3216)
T3 sequence (P10828 1-461): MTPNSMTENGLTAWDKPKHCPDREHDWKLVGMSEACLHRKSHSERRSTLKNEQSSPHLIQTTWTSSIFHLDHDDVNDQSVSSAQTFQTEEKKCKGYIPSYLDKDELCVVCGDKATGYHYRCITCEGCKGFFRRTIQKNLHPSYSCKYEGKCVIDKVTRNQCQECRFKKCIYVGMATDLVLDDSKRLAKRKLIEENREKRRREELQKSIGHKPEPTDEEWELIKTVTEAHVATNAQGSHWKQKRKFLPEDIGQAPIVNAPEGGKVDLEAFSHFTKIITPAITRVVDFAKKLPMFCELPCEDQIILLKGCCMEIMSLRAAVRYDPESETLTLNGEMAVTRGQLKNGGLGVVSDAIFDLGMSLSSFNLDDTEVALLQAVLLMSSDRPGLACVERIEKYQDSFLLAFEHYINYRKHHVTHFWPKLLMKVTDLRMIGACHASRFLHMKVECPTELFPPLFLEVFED
T3 sequence (P19793 1-462 partner): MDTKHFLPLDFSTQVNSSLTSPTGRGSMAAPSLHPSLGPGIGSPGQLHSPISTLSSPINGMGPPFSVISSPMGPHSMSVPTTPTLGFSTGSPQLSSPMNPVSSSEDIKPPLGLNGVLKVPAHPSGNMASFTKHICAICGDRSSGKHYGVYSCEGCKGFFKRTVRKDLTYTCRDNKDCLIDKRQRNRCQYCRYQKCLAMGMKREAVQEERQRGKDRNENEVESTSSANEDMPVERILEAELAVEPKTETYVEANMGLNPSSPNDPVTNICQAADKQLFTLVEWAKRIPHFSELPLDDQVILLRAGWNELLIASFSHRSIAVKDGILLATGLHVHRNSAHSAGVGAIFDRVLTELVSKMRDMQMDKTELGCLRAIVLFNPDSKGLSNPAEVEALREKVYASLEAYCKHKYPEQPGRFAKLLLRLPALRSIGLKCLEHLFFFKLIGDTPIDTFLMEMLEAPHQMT
In short: (§2)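 HEK293T cells transiently transfected with TRE-luciferase reporter, RXR, and THR alpha or THR beta plasmid; ten five-fold compound dilutions from DMSO added for 18-24 h. One-Glo luminescence read; percent agonism normalized between negative and positive controls.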

[4] = biological target: T4, THR alpha (Homo sapiens, UniProt P10827); test: HEK293T THR alpha/RXR luciferase reporter assay (Assay 2); format: cell-based; details: Assay 2; for Emax: HEK-293T, Table 5, THRα, read-out: Activity category Assay 2 THRα (Emax); for EC50: Table 4, THR-alpha, read-out: Activity category Assay 2 (EC50, THR-alpha agonist activity)
T4 construct: expressed in transfected cells; host or cells: HEK293T (ATCC CRL-3216)
T4 sequence (P10827 1-410 isoform P10827-2): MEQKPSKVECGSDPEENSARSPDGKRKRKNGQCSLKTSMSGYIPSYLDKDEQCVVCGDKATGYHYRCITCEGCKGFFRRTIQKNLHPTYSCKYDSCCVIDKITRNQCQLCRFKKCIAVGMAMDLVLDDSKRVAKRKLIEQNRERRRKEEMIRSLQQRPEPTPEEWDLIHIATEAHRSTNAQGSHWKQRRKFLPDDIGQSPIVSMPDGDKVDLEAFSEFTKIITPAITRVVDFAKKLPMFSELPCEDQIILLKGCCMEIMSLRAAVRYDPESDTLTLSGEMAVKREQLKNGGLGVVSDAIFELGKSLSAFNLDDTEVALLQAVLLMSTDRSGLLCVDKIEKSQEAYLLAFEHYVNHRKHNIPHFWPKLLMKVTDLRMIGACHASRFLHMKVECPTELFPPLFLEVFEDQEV
T4 sequence (P19793 1-462 partner): T3 sequence (P19793 1-462 partner)
In short: as §2

| Compound | EC50 [1] [nM] | Emax [1] [%] | EC50 [2] [nM] | Emax [2] [%] | Emax [3] [%] | EC50 [3] [nM] | Emax [4] [%] | EC50 [4] [nM] |
| --- | --- | --- | --- | --- | --- | --- | --- | --- |
| Cc1cccc(-c2cc(Oc3c(Cl)cc(-n4ncc(=O)[nH]c4=O)cc3Cl)n[nH]c2=O)c1 [Compound 139] | 50 to 250 | < 50 | 50 to 250 | < 50 | 50 to 75 | < 50 | < 50 | 50 to 250 |
| Cc1cc(-n2nc(N)c(=O)[nH]c2=O)cc(C)c1Cc1ccc2[nH]c(=O)n(C(C)C)c2c1 [Compound 149, 6-amino-2-(4-((3-isopropyl-2-oxo-2,3-dihydro-1H-benzo[d]imidazol-5-yl)methyl)-3,5-dimethylphenyl)-1,2,4-triazine-3,5(2H,4H)-dione] | < 50 | < 50 | < 50 | < 50 | > 75 | < 50 | > 75 | < 50 |
| Nc1nn(-c2cc(Cl)c(Oc3cc(C4CCOCC4)c(=O)[nH]n3)c(Cl)c2)c(=O)[nH]c1=O [Compound 59, 6-amino-2-(3,5-dichloro-4-[[5-(oxan-4-yl)-6-oxo-1H-pyridazin-3-yl]oxy]phenyl)-4H-1,2,4-triazine-3,5-dione] | 1000 to 25000 | < 50 | 1000 to 25000 | < 50 | > 75 | 1000 to 10000 | 50 to 75 | > 10000 |
| Nc1nn(-c2cc(Cl)c(Oc3cc(-c4ccc5ncccc5c4)c(=O)[nH]n3)c(Cl)c2)c(=O)[nH]c1=O [Compound 128] | > 25000 | < 50 | > 25000 | < 50 | < 50 | > 10000 | < 50 | > 10000 |
| Cc1cccc(-c2cc(Oc3c(Cl)cc(-n4nc(N)c(=O)[nH]c4=O)cc3Cl)n[nH]c2=O)c1F [Compound 64, 6-amino-2-(3,5-dichloro-4-[[5-(2-fluoro-3-methylphenyl)-6-oxo-1H-pyridazin-3-yl]oxy]phenyl)-4H-1,2,4-triazine-3,5-dione] | < 50 | < 50 | 250 to 1000 | < 50 | 50 to 75 | 50 to 250 | < 50 | 250 to 1000 |
| N#CC1CCC1c1cc(Oc2c(Cl)cc(-n3nc(N)c(=O)[nH]c3=O)cc2Cl)n[nH]c1=O (stereo not shown) [Compound 104] | 250 to 1000 | < 50 | 1000 to 25000 | 50 to 75 | 50 to 75 | 1000 to 10000 | < 50 | > 10000 |
| Cc1cc(-n2ncc(=O)[nH]c2=O)cc(C)c1Cc1cnc2[nH]cc(C(C)C)c2n1 [Compound 56, 2-(4-((7-isopropyl-5H-pyrrolo[2,3-b]pyrazin-2-yl)methyl)-3,5-dimethylphenyl)-1,2,4-triazine-3,5(2H,4H)-dione] | < 50 | < 50 | 250 to 1000 | < 50 | > 75 | 50 to 250 | 50 to 75 | 50 to 250 |
| CC(C)c1cc(Oc2c(Cl)cc(-n3nc(N)c(=O)[nH]c3=O)c3c2CC3)n[nH]c1=O [Compound 79, 6-Amino-2-[4-chloro-5-[(5-isopropyl-6-oxo-1H-pyridazin-3-yl)oxy]-bicyclo[4.2.0]octa-1(6),2,4-trien-2-yl]-4H-1,2,4-triazine-3,5-dione] | 1000 to 25000 | 50 to 75 | 1000 to 25000 | < 50 | > 75 | > 10000 | 50 to 75 | 1000 to 10000 |
| CC(C)C1(C)C(=O)Nc2ccc(Oc3c(Cl)cc(-n4nc(N)c(=O)[nH]c4=O)cc3Cl)cc21 (stereo not shown) [Compound 84, 6-amino-2-[3,5-dichloro-4-[(3-isopropyl-3-methyl-2-oxo-1H-indol-5-yl)oxy]phenyl]-4H-1,2,4-triazine-3,5-dione] | < 50 | < 50 | < 50 | 50 to 75 | > 75 | 50 to 250 | > 75 | 50 to 250 |
| CCc1cccc(-c2cc(Oc3c(Cl)cc(-n4nc(N)c(=O)[nH]c4=O)cc3Cl)n[nH]c2=O)c1 [Compound 71, 6-Amino-2-(3,5-dichloro-4-((5-(3-ethylphenyl)-6-oxo-1,6-dihydro-pyridazin-3-yl)oxy)phenyl)-1,2,4-triazine-3,5(2H,4H)-dione] | < 50 | < 50 | 50 to 250 | < 50 | > 75 | < 50 | 50 to 75 | 50 to 250 |
| CC1(C)CC(c2cc(Oc3c(Cl)cc(-n4nc(N)c(=O)[nH]c4=O)cc3Cl)n[nH]c2=O)CCO1 (stereo not shown) [Compound 76, 6-Amino-2-(3,5-dichloro-4-((5-(2,2-dimethyltetrahydro-2H-pyran-4-yl)-6-oxo-1,6-dihydropyridazin-3-yl)oxy)phenyl)-1,2,4-triazine-3,5(2H, 4H)-dione] | 1000 to 25000 | < 50 | > 25000 | < 50 | 50 to 75 | 250 to 1000 | < 50 | > 10000 |
